Read-outs that look alike come from different tables or passages of the source.
Key:
[1] = system: Beet Armyworm (Spodoptera exigua) ("BAW"), second instar larvae; assay: Bioassay on beet armyworm (BAW), 128-well diet tray assay; format: in vivo; settings: for pest or weed control at 50 µg/cm2: Spodoptera exigua; for BAW rating / BAW rating (% control or mortality class): Table ABC, species BAW; for BAW rating: C = not tested, D = no activity noticed; for BAW rating (% control or mortality class): 128-well diet tray assay, second instar larvae
In short: (§1)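 Covered trays were held at 25° C. under a 14:10 light-dark cycle for five to seven days. Percent mortality was then scored in each well, and activity across eight wells was averaged.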

[2] = system: Cabbage Looper (Trichoplusia ni) ("CL"), second instar larvae; assay: Bioassay on cabbage looper (CL), 128-well diet tray assay; format: in vivo; settings: for pest or weed control at 50 µg/cm2 / mortality at 50 µg/cm2: Trichoplusia ni; for CL rating / mortality at 50 µg/cm2: Table ABC, species CL; for CL rating: C = not tested, D = no activity noticed; for mortality at 50 µg/cm2: 128-well diet tray assay, second instar larvae, read-out: CL rating (% control or mortality class)
In short: as §1

[3] = read-out: BAW (Biological Results, rating)
[4] = read-out: CL (Biological Results, rating)

COc1ccc(C(C)C)c(N2C(=O)CS/C2=N\C(=O)Nc2ccc(-c3ncn(-c4ccc(C(F)(F)F)cc4)n3)cc2OC)c1 [Compound J10, (Z)-1-(3-(2-Isopropyl-5-methoxyphenyl)-4-oxothiazolidin-2-ylidene)-3-(2-methoxy-4-(1-(4-(trifluoromethyl)phenyl)-1H-1,2,4-triazol-3-yl)phenyl)urea]
pest or weed control at 50 µg/cm2 [1, 3]: 50 to 100% | pest or weed control at 50 µg/cm2 [2, 4]: 50 to 100%

Cc1ccc(COCC(Cl)(Cl)Cl)c(N2C(=O)CS/C2=N\C(=O)Nc2ccc(-c3ncn(-c4ccc(OC(F)(F)F)cc4)n3)cc2C)c1 [Compound J459]
BAW rating [1]: A (50-100) | CL rating [2]: A (50-100)

COC(C)c1ccc(C)cc1N1C(=O)CS/C1=N\C(=O)Nc1ccc(-c2ncn(-c3ccc(OC(F)(F)F)cc3)n2)cc1C(F)(F)F (centres unmarked) [Compound J117, (Z)-1-(3-(2-(1-Methoxyethyl)-5-methylphenyl)-4-oxothiazolidin-2-ylidene)-3-(4-(1-(4-(trifluoromethoxy)phenyl)-1H-1,2,4-triazol-3-yl)-2-(trifluoromethyl)phenyl)urea]
pest or weed control at 50 µg/cm2 [1, 3]: 50 to 100% | pest or weed control at 50 µg/cm2 [2, 4]: 50 to 100%

Cc1ccc(COCC(F)(F)F)c(N2C(=O)CS/C2=N\C(=O)Nc2ccc(-c3ncn(-c4ccc(OCC#N)cc4)n3)cc2C)c1 [Compound J359, (Z)-1-(4-(1-(4-(Cyanomethoxy)phenyl)-1H-1,2,4-triazol-3-yl)-2-methylphenyl)-3-(3-(5-methyl-2-((2,2,2-trifluoroethoxy)methyl)phenyl)-4-oxothiazolidin-2-ylidene)urea]
pest or weed control at 50 µg/cm2 ([1]; read-out: BAW rating): 50 to 100% | pest or weed control at 50 µg/cm2 ([2]; read-out: CL rating): 50 to 100%

CC(=O)c1cc(-c2ncn(-c3ccc(OC(F)(F)F)cc3)n2)ccc1NC(=O)/N=C1\SCC(=O)N1c1cc(C)ccc1OCCC(F)(F)F [Compound J399, (Z)-1-(2-Acetyl-4-(1-(4-(trifluoromethoxy)phenyl)-1H-1,2,4-triazol-3-yl)phenyl)-3-(3-(5-methyl-2-(3,3,3-trifluoropropoxy)phenyl)-4-oxothiazolidin-2-ylidene)urea]
pest or weed control at 50 µg/cm2 ([1]; read-out: BAW rating): 50 to 100% | pest or weed control at 50 µg/cm2 ([2]; read-out: CL rating): 50 to 100%

COCc1ccc(N(C)C)cc1N1C(=O)CS/C1=N\C(=O)Nc1ccc(-n2cnc(-c3ccc(OC(F)(F)F)cc3)c2)cc1Cl [Compound J789, (Z)-1-(2-Chloro-4-(4-(4-(trifluoromethoxy)phenyl)-1H-imidazol-1-yl)phenyl)-3-(3-(5-(dimethylamino)-2-(methoxymethyl)phenyl)-4-oxothiazolidin-2-ylidene)urea]
BAW rating (% control or mortality class) [1]: A (50-100) | mortality at 50 µg/cm2 [2]: 50 to 100%

Cc1ccc(COCC(F)F)c(N2C(=O)CS/C2=N\C(=O)Nc2ccc(-c3noc(-c4ccc(OC(F)(F)F)cc4)n3)cc2F)c1 [Compound J771, (Z)-1-(3-(2-((2,2-Difluoroethoxy)methyl)-5-methylphenyl)-4-oxothiazolidin-2-ylidene)-3-(2-fluoro-4-(5-(4-(trifluoromethoxy)phenyl)-1,2,4-oxadiazol-3-yl)phenyl)urea]
pest or weed control at 50 µg/cm2 ([1]; read-out: BAW rating): 50 to 100% | pest or weed control at 50 µg/cm2 ([2]; read-out: CL rating): 50 to 100%

Cc1ccc(C(C)C)c(N2C(=O)CS/C2=N\C(=O)Nc2ccc(-c3cn(-c4ccc(S(F)(F)(F)(F)F)cc4)cn3)cc2C)c1 [Compound J613, (Z)-1-(3-(2-Isopropyl-5-methylphenyl)-4-oxothiazolidin-2-ylidene)-3-(2-methyl-4-(1-(4-(pentafluoro-λ^6-sulfaneyl)phenyl)-1H-imidazol-4-yl)phenyl)urea]
pest or weed control at 50 µg/cm2 ([1]; read-out: BAW rating): 50 to 100% | pest or weed control at 50 µg/cm2 ([2]; read-out: CL rating): 50 to 100%

Cc1ccc(C(C)C)c(N2C(=O)CS/C2=N\C(=O)Nc2ccc(-c3cn(-c4ccc(OC(F)(F)F)cc4)cn3)cc2F)c1 [Compound J473, (Z)-1-(2-Fluoro-4-(1-(4-(trifluoromethoxy)phenyl)-1H-imidazol-4-yl)phenyl)-3-(3-(2-isopropyl-5-methylphenyl)-4-oxothiazolidin-2-ylidene)urea]
pest or weed control at 50 µg/cm2 ([1]; read-out: BAW rating): 50 to 100% | pest or weed control at 50 µg/cm2 ([2]; read-out: CL rating): 50 to 100%

Cc1cc(-c2ncn(-c3ccc(OC(F)(F)F)cc3)n2)ccc1NC(=O)/N=C1\SCC(=O)N1c1cccc(C)c1COCC(F)(F)F [Compound J576]
BAW rating [1]: A (50-100) | CL rating [2]: A (50-100)

COc1cc(-c2ncn(-c3ccc(OC(F)(F)F)cc3)n2)ccc1NC(=O)/N=C1\SCC(=O)N1c1cc(C)ccc1C(C)OC (centres unmarked) [Compound J90, (Z)-1-(2-Methoxy-4-(1-(4-(trifluoromethoxy)phenyl)-1H-1,2,4-triazol-3-yl)phenyl)-3-(3-(2-(1-methoxyethyl)-5-methylphenyl)-4-oxothiazolidin-2-ylidene)urea]
pest or weed control at 50 µg/cm2 [1, 3]: 50 to 100% | pest or weed control at 50 µg/cm2 [2, 4]: 50 to 100%

COC(C)c1ccc(C)cc1N1C(=O)CS/C1=N\C(=O)Nc1ccc(-c2cn(-c3ccc(C(F)(F)F)cn3)cn2)cc1F (centres unmarked) [Compound J461, (Z)-1-(2-Fluoro-4-(1-(5-(trifluoromethyl)pyridin-2-yl)-1H-imidazol-4-yl)phenyl)-3-(3-(2-(1-methoxyethyl)-5-methylphenyl)-4-oxothiazolidin-2-ylidene)urea]
pest or weed control at 50 µg/cm2 ([1]; read-out: BAW rating): 50 to 100% | pest or weed control at 50 µg/cm2 ([2]; read-out: CL rating): 50 to 100%

COc1ccc(COCC(F)(F)F)c(N2C(=O)CS/C2=N\C(=O)Nc2ccc(-c3ncn(-c4ccc(S(F)(F)(F)(F)F)cc4)n3)cc2C)c1 [Compound J577]
BAW rating [1]: A (50-100) | CL rating [2]: A (50-100)

Cc1ccc(OCC(F)(F)F)c(N2C(=O)CS/C2=N\C(=O)Nc2ccc(-c3ncn(-c4ccc(OC(F)(F)F)cc4)n3)cc2Br)c1 [Compound J218, (Z)-1-(2-Bromo-4-(1-(4-(trifluoromethoxy)phenyl)-1H-1,2,4-triazol-3-yl)phenyl)-3-(3-(5-methyl-2-(2,2,2-trifluoroethoxy)phenyl)-4-oxothiazolidin-2-ylidene)urea]
pest or weed control at 50 µg/cm2 [1, 3]: 50 to 100% | pest or weed control at 50 µg/cm2 [2, 4]: 50 to 100%

CC(C)c1ccc(N(C)C)cc1N1C(=O)CS/C1=N\C(=O)Nc1ccc(-n2cnc(-c3ccc(OC(F)(F)F)cc3)n2)cc1 [Compound J408, (Z)-1-(3-(5-(Dimethylamino)-2-isopropylphenyl)-4-oxothiazolidin-2-ylidene)-3-(4-(3-(4-(trifluoromethoxy)phenyl)-1H-1,2,4-triazol-1-yl)phenyl)urea]
pest or weed control at 50 µg/cm2 ([1]; read-out: BAW rating): 50 to 100% | pest or weed control at 50 µg/cm2 ([2]; read-out: CL rating): 50 to 100%

Cc1ccc(OCCC(F)(F)F)c(N2C(=O)CS/C2=N\C(=O)Nc2ccc(-n3cnc(-c4ccc(OC(F)(F)F)cc4)c3)cc2Cl)c1 [Compound J790, (Z)-1-(2-Chloro-4-(4-(4-(trifluoromethoxy)phenyl)-1H-imidazol-1-yl)phenyl)-3-(3-(5-methyl-2-(3,3,3-trifluoropropoxy)phenyl)-4-oxothiazolidin-2-ylidene)urea]
BAW rating (% control or mortality class) [1]: A (50-100) | mortality at 50 µg/cm2 [2]: 50 to 100%

Cc1ccc(C(C)C)c(N2C(=O)CS/C2=N\C(=O)Nc2ncc(-c3ncn(-c4ccc(C(F)(F)F)cc4)n3)cc2C)c1 [Compound J664, (Z)-1-(3-(2-isopropyl-5-methylphenyl)-4-oxothiazolidin-2-ylidene)-3-(3-methyl-5-(1-(4-(trifluoromethyl)phenyl)-1H-1,2,4-triazol-3-yl)pyridin-2-yl)urea]
pest or weed control at 50 µg/cm2 ([1]; read-out: BAW rating): 50 to 100% | pest or weed control at 50 µg/cm2 ([2]; read-out: CL rating): 50 to 100%

CC(C)c1ccc(N(C)C)cc1N1C(=O)CS/C1=N\C(=O)Nc1ccc(-c2ccn(-c3ccc(C(F)(F)F)cn3)n2)cc1F [Compound J349]
BAW (Biological Results, rating) ([1]; Beet Armyworm (Spodoptera exigua), C = Not Tested): A (50-100) | CL (Biological Results, rating) ([2]; Cabbage Looper (Trichoplusia ni), C = Not Tested): A (50-100)

Cc1ccc(Cc2ccccc2)c(N2C(=O)CS/C2=N\C(=O)Nc2ccc(-c3ncn(-c4ccc(S(F)(F)(F)(F)F)cc4)n3)cc2F)c1 [Compound J563, (Z)-1-(3-(2-Benzyl-5-methylphenyl)-4-oxothiazolidin-2-ylidene)-3-(2-fluoro-4-(1-(4-(pentafluoro-λ^6-sulfaneyl)phenyl)-1H-1,2,4-triazol-3-yl)phenyl)urea]
pest or weed control at 50 µg/cm2 ([1]; read-out: BAW rating): 50 to 100% | pest or weed control at 50 µg/cm2 ([2]; read-out: CL rating): 50 to 100%

CCCc1ccc(N(C)C)cc1N1C(=O)CS/C1=N\C(=O)Nc1ccc(-c2cn(-c3ccc(S(F)(F)(F)(F)F)cc3)cn2)cc1F [Compound J602, (Z)-1-(3-(5-(Dimethylamino)-2-propylphenyl)-4-oxothiazolidin-2-ylidene)-3-(2-fluoro-4-(1-(4-(pentafluoro-λ^6-sulfaneyl)phenyl)-1H-imidazol-4-yl)phenyl)urea]
pest or weed control at 50 µg/cm2 ([1]; read-out: BAW rating): 50 to 100% | pest or weed control at 50 µg/cm2 ([2]; read-out: CL rating): 50 to 100%

CCN(C(C)=O)c1ccc(C(C)C)c(N2C(=O)CS/C2=N\C(=O)Nc2ccc(-c3ncn(-c4ccc(OC(F)(F)F)cc4)n3)cc2C)c1 [Compound J200, (Z)-N-Ethyl-N-(4-isopropyl-3-(2-(((2-methyl-4-(1-(4-(trifluoromethoxy)phenyl)-1H-1,2,4-triazol-3-yl)phenyl)carbamoyl)imino)-4-oxothiazolidin-3-yl)phenyl)acetamide]
pest or weed control at 50 µg/cm2 [1, 3]: 50 to 100% | pest or weed control at 50 µg/cm2 [2, 4]: 50 to 100%

Cc1ccc(COCC(F)F)c(N2C(=O)CS/C2=N\C(=O)Nc2ccc(-n3cnc(-c4ccc(OC(F)(F)F)cc4)n3)cc2F)c1 [Compound J692, (Z)-1-(3-(2-((2,2-Difluoroethoxy)methyl)-5-methylphenyl)-4-oxothiazolidin-2-ylidene)-3-(2-fluoro-4-(3-(4-(trifluoromethoxy)phenyl)-1H-1,2,4-triazol-1-yl)phenyl)urea]
pest or weed control at 50 µg/cm2 ([1]; read-out: BAW rating): 50 to 100% | pest or weed control at 50 µg/cm2 ([2]; read-out: CL rating): 50 to 100%
